Data: US20250333397A1 (REMIX THERAPEUTICS INC., priority 2021, published 2025)
pIC50: −log10 of the molar value. Like-named read-outs stand apart in the source and are kept apart here.

Legend:
Type in all cases: cell-based, human
Target C mRNA = test: RT-qPCR splicing assay panel, Target C canonical junction (CJ) mRNA; settings: canonical junction (CJ) mRNA, RT-qPCR panel, Table 4A, read-out: Target C, decrease in CJ mRNA levels, IC50
Procedure, shortened: (§1)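 Junction-specific RT-qPCR read the canonical exon-exon junction and the compound-induced alternative-exon junction, normalized to GAPDH, GUSB or PPIA and then to DMSO (2^(-ΔΔCt)). Input was lysate from A673 or K562 cells exposed for 24 h to compound up to 10 uM.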

HTT mRNA = test: RT-qPCR splicing assay, HTT canonical (CJ) and alternative (AJ) junction mRNA; settings: for AC50: read-out: HTT AJ (AC50, increase in AJ mRNA)
Procedure, shortened: as §1

SMN2 mRNA = test: RT-qPCR splicing assay panel, SMN2 canonical junction (CJ) mRNA; settings: canonical junction (CJ) mRNA, RT-qPCR panel, Table 4A, read-out: SMN2, decrease in CJ mRNA levels, IC50
Procedure, shortened: as §1

MYB mRNA = test: RT-qPCR splicing assay, MYB canonical (CJ) and alternative (AJ) junction mRNA; settings: for AC50: read-out: MYB AJ (AC50, increase in AJ mRNA)
Procedure, shortened: as §1

[1] = Homo sapiens, 24 h, Table 3A, A673 or K562 cells, 24 h treatment
[2] = Homo sapiens, 24 h, Table 3A, A673 or K562 cells, 24 h treatment, read-out: HTT CJ (IC50, decrease in CJ mRNA)
[3] = Homo sapiens, canonical junction (CJ) mRNA, RT-qPCR panel, Table 4A, read-out: HTT, decrease in CJ mRNA levels, IC50
[4] = Homo sapiens, 24 h, Table 3A, A673 or K562 cells, 24 h treatment, read-out: MYB CJ (IC50, decrease in CJ mRNA)
[5] = Homo sapiens, canonical junction (CJ) mRNA, RT-qPCR panel, Table 4A, read-out: MYB, decrease in CJ mRNA levels, IC50
[6] = Table 3A, A673 or K562 cells, 24 h treatment

| Structure (SMILES) | pIC50 (Target C mRNA; Homo sapiens) | pIC50 (HTT mRNA; [2]) | pIC50 (HTT mRNA; [3]) | pIC50 (SMN2 mRNA; Homo sapiens) | pIC50 (MYB mRNA; [4]) | pIC50 (MYB mRNA; [5]) | pIC50 (Target C mRNA) | pIC50 (HTT mRNA; Table 3A, A673 or K562 cells, 24 h treatment, read-out: HTT CJ (IC50, decrease in CJ mRNA)) | pIC50 (HTT mRNA; canonical junction (CJ) mRNA, RT-qPCR panel, Table 4A, read-out: HTT, decrease in CJ mRNA levels, IC50) | pIC50 (SMN2 mRNA) | pIC50 (MYB mRNA; Table 3A, A673 or K562 cells, 24 h treatment, read-out: MYB CJ (IC50, decrease in CJ mRNA)) | pIC50 (MYB mRNA; canonical junction (CJ) mRNA, RT-qPCR panel, Table 4A, read-out: MYB, decrease in CJ mRNA levels, IC50) | AC50 (HTT mRNA; [1]) [nM] | AC50 (MYB mRNA; [1]) [nM] | AC50 (HTT mRNA; [6]) [nM] | AC50 (MYB mRNA; [6]) [nM] |
| --- | --- | --- | --- | --- | --- | --- | --- | --- | --- | --- | --- | --- | --- | --- | --- | --- |
| COc1cc(-c2ccc(-c3ccc(N4CC[C@@](C)(NCC5CC5)C4)nn3)c(O)c2)ncn1 [Compound 375, 2-{6-[(3R)-3-[(cyclopropylmethyl)amino]-3-methylpyrrolidin-1-yl]pyridazin-3-yl}-5-(6-methoxypyrimidin-4-yl)phenol] | 6.00 to 7.00 | > 7.00 | > 7.00 | > 7.00 | 6.00 to 7.00 | 6.00 to 7.00 |  |  |  |  |  |  | 100 to 1000 | 1000 to 10000 |  |  |
| CN([C@@H]1CCN(c2ccc(-c3ccc(-c4cn[nH]c4)cc3O)nn2)C1)C(C)(C)C [Compound 446] |  |  |  |  |  |  | > 7.00 | > 7.00 | > 7.00 | > 7.00 | > 7.00 | > 7.00 |  |  | < 100 | < 100 |
| COc1cc(-c2ccc(-c3ccc(N4C[C@@H](F)[C@@H](NC(C)(C)C)C4)nn3)c(O)c2)cnn1 [Compound 218, 2-{6-[(3S,4R)-3-(tert-butylamino)-4-fluoropyrrolidin-1-yl]pyridazin-3-yl}-5-(6-methoxypyridazin-4-yl)phenol] | > 7.00 | > 7.00 | > 7.00 | > 7.00 | > 7.00 | > 7.00 |  |  |  |  |  |  | < 100 | < 100 |  |  |
| Cc1cc(-c2ccc(-c3ccc(N4CC[C@H](NC5CCC5)C4)nn3)c(O)c2)cnn1 [Compound 291, 2-{6-[(3S)-3-(cyclobutylamino)pyrrolidin-1-yl]pyridazin-3-yl}-5-(6-methylpyridazin-4-yl)phenol] | < 5.00 | 5.00 to 6.00 | 5.00 to 6.00 | 5.00 to 6.00 | < 5.00 | < 5.00 |  |  |  |  |  |  | > 10000 | > 10000 |  |  |
| COc1cc(-c2ccc(-c3ccc(N4CC[C@H](NC(C)(C)C)C4)nn3)c(O)c2)cnn1 [Compound 210, 2-{6-[(3S)-3-(tert-butylamino)pyrrolidin-1-yl]pyridazin-3-yl}-5-(6-methoxypyridazin-4-yl)phenol] | > 7.00 | > 7.00 | > 7.00 | > 7.00 | > 7.00 | > 7.00 |  |  |  |  |  |  | < 100 | < 100 |  |  |
| Cc1ncc(-c2ccc(-c3ccc(OC4CC(C)(C)NC(C)(C)C4)nn3)c(O)c2)s1 [Compound 329] | > 7.00 | > 7.00 | > 7.00 | > 7.00 | 6.00 to 7.00 | 6.00 to 7.00 |  |  |  |  |  |  | < 100 | 100 to 1000 |  |  |
| COc1cc(-c2ccc(-c3ccc(N4CC[C@@H](NCC5CC5)C4)nn3)c(O)c2)cnn1 [Compound 288] | 6.00 to 7.00 | > 7.00 | > 7.00 | > 7.00 | 6.00 to 7.00 | 6.00 to 7.00 |  |  |  |  |  |  | 100 to 1000 | 100 to 1000 |  |  |
| Cc1ncc(-c2cc(O)c(-c3ccc(N4CCC(CNC5CCC5)C4)nn3)cc2F)s1 (stereo not drawn) [Compound 342, 2-(6-{3-[(cyclobutylamino)methyl]pyrrolidin-1-yl}pyridazin-3-yl)-4-fluoro-5-(2-methyl-1,3-thiazol-5-yl)phenol] | > 7.00 | > 7.00 | > 7.00 | > 7.00 | < 5.00 | < 5.00 |  |  |  |  |  |  | < 100 | 1000 to 10000 |  |  |

Now from value to molecule, other results behind:

| pIC50 (Target C mRNA; Homo sapiens) | pIC50 (HTT mRNA; [2]) | pIC50 (HTT mRNA; [3]) | pIC50 (SMN2 mRNA; Homo sapiens) | pIC50 (MYB mRNA; [4]) | pIC50 (MYB mRNA; [5]) | pIC50 (Target C mRNA) | pIC50 (HTT mRNA; Table 3A, A673 or K562 cells, 24 h treatment, read-out: HTT CJ (IC50, decrease in CJ mRNA)) | pIC50 (HTT mRNA; canonical junction (CJ) mRNA, RT-qPCR panel, Table 4A, read-out: HTT, decrease in CJ mRNA levels, IC50) | pIC50 (SMN2 mRNA) | pIC50 (MYB mRNA; Table 3A, A673 or K562 cells, 24 h treatment, read-out: MYB CJ (IC50, decrease in CJ mRNA)) | pIC50 (MYB mRNA; canonical junction (CJ) mRNA, RT-qPCR panel, Table 4A, read-out: MYB, decrease in CJ mRNA levels, IC50) | Structure (SMILES) | AC50 (HTT mRNA; [1]) [nM] | AC50 (MYB mRNA; [1]) [nM] | AC50 (HTT mRNA; [6]) [nM] | AC50 (MYB mRNA; [6]) [nM] |
| --- | --- | --- | --- | --- | --- | --- | --- | --- | --- | --- | --- | --- | --- | --- | --- | --- |
| 5.00 to 6.00 | 6.00 to 7.00 | 6.00 to 7.00 | 6.00 to 7.00 | 6.00 to 7.00 | 6.00 to 7.00 |  |  |  |  |  |  | Cc1ncc(-c2ccc(-c3ccc(N4CCC(NC5CCC5)C4)nn3)nc2F)s1 (stereo not drawn) [Compound 349] | 100 to 1000 | 100 to 1000 |  |  |
| > 7.00 | > 7.00 | > 7.00 | > 7.00 | 6.00 to 7.00 | 6.00 to 7.00 |  |  |  |  |  |  | COc1cc(-c2ccc(-c3ccc(N4CC[C@H](NC5(C)CCC5)C4)nn3)c(O)c2)cnn1 [Compound 289, (S)-5-(6-methoxypyridazin-4-yl)-2-(6-(3-((1-methylcyclobutyl)amino)pyrrolidin-1-yl)pyridazin-3-yl)phenol] | 100 to 1000 | 100 to 1000 |  |  |
| 5.00 to 6.00 | 6.00 to 7.00 | 6.00 to 7.00 | 6.00 to 7.00 | 5.00 to 6.00 | 5.00 to 6.00 |  |  |  |  |  |  | Oc1cc(-c2cnc(C(F)F)s2)c(F)cc1-c1ccc(N2CCC(NC3CCC3)C2)nn1 (stereo not drawn) [Compound 389] | 1000 to 10000 | 1000 to 10000 |  |  |
| 6.00 to 7.00 | 6.00 to 7.00 | 6.00 to 7.00 | > 7.00 | 6.00 to 7.00 | 6.00 to 7.00 |  |  |  |  |  |  | Cc1ncc(-c2cc(O)c(-c3ccc(N4CC[C@@H](NC5CCC5)C4)nn3)cc2F)o1 [Compound 228, 2-{6-[(3R)-3-(cyclobutylamino)pyrrolidin-1-yl]pyridazin-3-yl}-4-fluoro-5-(2-methyl-1,3-oxazol-5-yl)phenol] | 100 to 1000 | 100 to 1000 |  |  |
| 6.00 to 7.00 | 6.00 to 7.00 | 6.00 to 7.00 | > 7.00 | 6.00 to 7.00 | 6.00 to 7.00 |  |  |  |  |  |  | COc1cc(-c2ccc(-c3ccc(N4CC(F)[C@@H](NC(C)(C)C)C4)nn3)c(O)c2)cnn1 (stereo in doubt) [Compound 217, 2-{6-[(3S,4R)-3-(tert-butylamino)-4-fluoropyrrolidin-1-yl]pyridazin-3-yl}-5-(6-methoxypyridazin-4-yl)phenol] | 100 to 1000 | 1000 to 10000 |  |  |
| 6.00 to 7.00 | > 7.00 | > 7.00 | > 7.00 | 6.00 to 7.00 | 6.00 to 7.00 |  |  |  |  |  |  | Cc1nc2c(F)cc(-c3ccc(-c4ccc(N5CCC(NC6CCC6)C5)nn4)c(O)c3)cc2o1 (stereo not drawn) [Compound 326] | 100 to 1000 | 100 to 1000 |  |  |
| 5.00 to 6.00 | 6.00 to 7.00 | 6.00 to 7.00 | 6.00 to 7.00 | 5.00 to 6.00 | 5.00 to 6.00 |  |  |  |  |  |  | Oc1cc(-c2ccc(-c3ccc(N4CC[C@H](NC5CCC5)C4)nn3)c(O)c2)cnn1 [Compound 420, 5-(4-{6-[(3S)-3-(cyclobutylamino)pyrrolidin-1-yl]pyridazin-3-yl}-3-hydroxyphenyl)pyridazin-3-ol] | 1000 to 10000 | > 10000 |  |  |
